Where two headings read alike, the source gives them in different places.
Key:
hGLUT1 = target: T1, hGLUT1 (Homo sapiens, UniProt P11166); assay: Sugar uptake assay in Xenopus oocytes expressing hGLUT1; assay type: cell-based; settings: 105 mM of sugar, 3 h
T1 construct: ORF of hGLUT1 cDNA was obtained by digestion of pSPMM1 with BamH I; expressed in transfected cells; host or cells: Xenopus laevis oocytes injected with cRNA
T1 sequence (P11166 1-492): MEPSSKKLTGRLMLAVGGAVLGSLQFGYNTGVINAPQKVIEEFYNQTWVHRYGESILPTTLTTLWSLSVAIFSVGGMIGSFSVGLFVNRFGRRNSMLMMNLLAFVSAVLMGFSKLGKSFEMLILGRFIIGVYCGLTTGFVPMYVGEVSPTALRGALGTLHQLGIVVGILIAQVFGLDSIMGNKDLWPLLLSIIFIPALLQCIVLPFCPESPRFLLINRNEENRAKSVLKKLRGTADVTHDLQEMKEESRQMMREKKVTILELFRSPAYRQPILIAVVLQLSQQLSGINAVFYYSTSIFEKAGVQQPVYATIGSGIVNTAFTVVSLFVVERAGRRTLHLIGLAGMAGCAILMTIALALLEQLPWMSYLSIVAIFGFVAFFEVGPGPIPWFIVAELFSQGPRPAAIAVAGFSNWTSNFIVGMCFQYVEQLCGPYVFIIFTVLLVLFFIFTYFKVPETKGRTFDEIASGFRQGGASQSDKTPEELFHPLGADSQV
Text: (§1) The capped RNA (cRNA) expression vector pTRET1-XbG-ev1 series was constructed as follows: ORF of either Tret1, DmTret1, AmTret1, AgTret1 or BmTret1 cDNA was amplified with PCR using specific primers containing Bgl II site at the 5′-end on each primer, respectively. The PCR products were digested with the restriction enzymes, and cloned into the site of Bgl II in pXbG-ev1 (Preston, G. M., et al. (1992) Science 256, 385-387). ORF of hGLUT1 cDNA was obtained by digestion of pSPMM1 with BamH I, and then subcloned into the site of Bgl II in pXbG-2. Template DNAs for cRNA synthesis were amplified from the corresponding cRNA expression vectors with a high fidelity DNA polymerase, KOD—Plus—, (TOYOBO). The cRNAs were synthesized with mMESSAGE mMACHINE T7 Kit (Ambion), and then purified with RNeasy MiniElute Cleanup kit (Qiagen).
(§2) All uptake assays for zero-trans trehalose and/or other sugars were performed using Xenopus oocytes expressing TRET1 at 15° C. in MBS containing appropriate concentrations of sugars. Sugar concentrations were determined using HPLC (Watanabe, M., et al. (2002) J Exp Biol 205, 2799-2802). All assays were carried out in triplicate.
(§3) Xenopus oocytes expressing either TRET1 or hGLUT1 were incubated in 105 mM of various sugars for 3 h. Tre: trehalose; Mal: maltose; Suc: sucrose; Lac: lactose; MAG: methyl-a-glucopyranoside; and 2-DOG: 2-deoxy-glucose (FIG. 3B).

TRET1 = target: T2, TRET1 (Polypedilum vanderplanki, UniProt A5LGM7); assay type: cell-based; settings: for effect on the transport activity of TRET1: 105 mM trehalose, various concentrations of ionophore/uncoupler
T2 construct: ORF of either Tret1, DmTret1, AmTret1, AgTret1 or BmTret1 cDNA was amplified with PCR; expressed in transfected cells; host or cells: Xenopus laevis oocytes injected with cRNA
T2 sequence (A5LGM7 1-504): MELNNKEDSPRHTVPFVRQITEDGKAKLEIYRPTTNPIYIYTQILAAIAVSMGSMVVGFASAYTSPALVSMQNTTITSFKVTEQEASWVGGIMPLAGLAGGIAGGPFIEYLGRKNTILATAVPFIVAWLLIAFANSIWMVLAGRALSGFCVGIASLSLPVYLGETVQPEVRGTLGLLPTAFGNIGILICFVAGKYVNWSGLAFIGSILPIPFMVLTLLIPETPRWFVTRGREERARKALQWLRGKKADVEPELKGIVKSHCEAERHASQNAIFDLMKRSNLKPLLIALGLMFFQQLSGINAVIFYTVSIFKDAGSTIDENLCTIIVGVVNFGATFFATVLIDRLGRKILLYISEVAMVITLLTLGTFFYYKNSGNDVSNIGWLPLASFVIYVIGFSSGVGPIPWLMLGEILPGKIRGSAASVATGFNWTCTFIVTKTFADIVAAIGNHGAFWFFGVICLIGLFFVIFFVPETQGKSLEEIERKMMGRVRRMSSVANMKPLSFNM
Text: as §1
Stage V or VI oocytes were extirpated from X. laevis females, and digested ovarian lobes with 0.2% (w/v) collagenase, type II (Sigma-Aldrich) in Ca^2+-free modified Barth's saline (MBS; 88.0 mM NaCl, 1.0 mM KCl, 2.4 mM NaHCO3, 15.0 mM Tris-Cl, 0.82 mM MgSO4, […] penicillin and streptomycin, pH7.6) at 15° C. for 3 h. The oocytes were microinjected with 40 nl of either 1 ng/nl of the TRET1::AcGFP1 or AcGFP1 cRNA, or nuclease-free water (Invitrogen) as a negative control. In order to express TRET1, the oocytes were incubated in MBS (containing 0.41 mM CaCl2) for 3-4 days after injection at 15° C. Fluorescence images of the oocytes injected with the cRNA were observed and analyzed with a fluorescence microscope BZ-8000 (KEYENCE).
as §2, §3
In General, transporters contain two sub-classes: facilitated transporters and secondary active transporters. Activities of secondary active transporters are dependent on the electrochemical membrane potential resulting from the distribution of ions such as H^+. For example, proton-dependent MAL11/AGT1 can act only under acidic extracellular conditions (Stambuk, B. U., et al. (1996) Eur J Biochem 237, 876-881). On the other hand, facilitated transporters function independently of the electrochemical membrane potential. Xenopus oocytes expressing TRET1 were incubated in 105 mM trehalose at pH 4.2 and 7.6 for 3 h.
Xenopus oocytes expressing TRET1 were incubated in 105 mM trehalose with either control buffer (Mock; 0.1% acetone), or buffer containing various concentrations of nigericin (Na^+, K^+-ionophore), valinomycin (K^+-ionophore) or CCCP (H^+-ionophore, uncoupler) for 3 h.
In general, facilitated transporters enable their substrates to flow across membranes down concentration gradients. Xenopus oocytes expressing TRET1 were first incubated in 105 mM trehalose for 3 h, and then transferred into trehalose-free buffer and trehalose content was examined over time.
Xenopus oocytes expressing TRET1 were incubated in various concentrations of trehalose for 15 min. Uptake data were fitted to the Michaelis-Menten and Eadie-Hofstee (inset of FIG. 9) equations.

[1] = 105 mM of sugar, 3 h, Xenopus oocytes

SMILES | effect on the transport activity of TRET1 (TRET1; 3 h) | transport of sugar by TRET1 (substrate selectivity) (TRET1; [1]) | further results
O=CC[C@@H](O)[C@H](O)[C@H](O)CO [2-DOG, 2-deoxy-glucose] | – | – | transport of sugar by Glut1 gene product (substrate selectivity) (hGLUT1): transported; transport of sugar by TRET1 (substrate selectivity) (TRET1): transported at a much lower rate
N#CC(C#N)=NNc1cccc(Cl)c1 [CCCP, carbonylcyanide m-chlorophenylhydrazone] | did not significantly affect | – | –
COC1OC(CO)C(O)C(O)C1O (stereo not drawn) [MAG, methyl-a-glucopyranoside] | – | transported at a much lower rate | –
OC[C@H]1O[C@H](O[C@H]2[C@H](O)[C@@H](O)[C@H](O)O[C@@H]2CO)[C@H](O)[C@@H](O)[C@@H]1O [Maltose, maltose] | – | not transported | –
OC[C@H]1O[C@@H](O[C@H]2[C@H](O)[C@@H](O)C(O)O[C@@H]2CO)[C@H](O)[C@@H](O)[C@H]1O (stereo partly drawn) [lactose, 4-O-b-D-galactopyranosyl-D-glucose] | – | not transported | –
CO[C@@H]1C[C@@H](C[C@H]2CC[C@H](C)[C@H]([C@@H](C)C(=O)O)O2)O[C@]2(O[C@](C)([C@H]3CC[C@@](C)([C@@H]4O[C@@H]([C@H]5O[C@@](O)(CO)[C@H](C)C[C@@H]5C)C[C@@H]4C)O3)C[C@H]2C)[C@@H]1C [nigericin] | did not significantly affect | – | –
OC[C@H]1O[C@@](CO)(O[C@H]2O[C@H](CO)[C@@H](O)[C@H](O)[C@H]2O)[C@@H](O)[C@@H]1O [sucrose] | – | not transported | –
CC(C)[C@@H]1NC(=O)[C@H](C)OC(=O)[C@@H](C(C)C)NC(=O)[C@@H](C(C)C)OC(=O)[C@H](C(C)C)NC(=O)[C@H](C)OC(=O)[C@@H](C(C)C)NC(=O)[C@@H](C(C)C)OC(=O)[C@H](C(C)C)NC(=O)[C@H](C)OC(=O)[C@@H](C(C)C)NC(=O)[C@@H](C(C)C)OC1=O [valinomycin] | did not significantly affect | – | –

Reference: patent US7892789B2, “Method of increasing cell permeability to trehalose by recombinantly producing a trehalose transporter” (priority 2007, dated 2011)
